PubChem BioAssay AID192 (DTP/NCI, 2004)
Where “and” joins values, the source holds several entries; their conditions need not be identical. Equal values may be shown once. Toxic doses and inconclusive results are not listed.

System: BDF1 mice, B16 melanoma ip, median survival T/C
Assay: NCI In Vivo Anticancer Drug Screen. Data for tumor model B16 Melanoma (intraperitoneal) in B6D2F1 (BDF1) mice
Conditions: endpoint: median survival time, higher = longer survival
Procedure, shortened: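 Antitumor activity is assessed in mice bearing a transplanted tumor, with survival or tumor size compared against vehicle-dosed controls and expressed as T/C.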

[1] = dose: 12.5 mg/kg/injection, schedule: Q01DX009 (ip), vehicle: saline
[2] = dose: 25.0 mg/kg/injection, schedule: Q01DX009 (ip), vehicle: saline

N=c1c2ncn(Cc3cccc(C(F)(F)F)c3)c2ncn1O
T/C (dose: 0.09 mg/kg/injection, schedule: Q01DX009 (ip), vehicle: Klucel (hydroxypropylcellulose) (HPC)): 93 % of control | T/C (dose: 0.19 mg/kg/injection, schedule: Q01DX009 (ip), vehicle: Klucel (hydroxypropylcellulose) (HPC)): 90 % of control | T/C (dose: 0.25 mg/kg/injection, schedule: Q04DX003 (ip), vehicle: Klucel (hydroxypropylcellulose) (HPC)): 97 % of control | T/C (dose: 0.39 mg/kg/injection, schedule: Q01DX009 (ip), vehicle: Klucel (hydroxypropylcellulose) (HPC)): 93 % of control | T/C (dose: 0.5 mg/kg/injection, schedule: Q04DX003 (ip), vehicle: Klucel (hydroxypropylcellulose) (HPC)): 95 % of control | T/C (dose: 0.78 mg/kg/injection, schedule: Q01DX009 (ip), vehicle: Klucel (hydroxypropylcellulose) (HPC)): 91 % of control | T/C (dose: 1.0 mg/kg/injection, schedule: Q04DX003 (ip), vehicle: Klucel (hydroxypropylcellulose) (HPC)): 92 % of control | T/C (dose: 1.4 mg/kg/injection, schedule: Q04DX003 (ip), vehicle: Klucel (hydroxypropylcellulose) (HPC)): 107 % of control | T/C (dose: 1.56 mg/kg/injection, schedule: Q01DX009 (ip), vehicle: Klucel (hydroxypropylcellulose) (HPC)): 88 % of control | T/C (dose: 2.2 mg/kg/injection, schedule: Q04DX003 (ip), vehicle: Klucel (hydroxypropylcellulose) (HPC)): 107 % of control | T/C (dose: 3.3 mg/kg/injection, schedule: Q04DX003 (ip), vehicle: Klucel (hydroxypropylcellulose) (HPC)): 95 % of control

CC(C)c1ccc(O)c(O)c1
T/C [1]: 95 % of control | T/C (dose: 25.0 mg/kg/injection, schedule: Q01DX009 (ip), vehicle: saline with Tween-80): 104 % of control | T/C [2]: 100 % of control | T/C (dose: 50.0 mg/kg/injection, schedule: Q01DX009 (ip), vehicle: saline): 96 % of control

CC1=C(/C=C/C(C)=C/C=C/C(C)=C/C(=O)O)C(C)(C)CCC1
T/C (dose: 0.5 mg/kg/injection, schedule: Q01DX009 (ip), vehicle: saline with Tween-80): 98 % of control | T/C (dose: 1.0 mg/kg/injection, schedule: Q01DX009 (ip), vehicle: saline with Tween-80): 90 % of control | T/C (dose: 8.0 mg/kg/injection, schedule: Q01DX009 (ip), vehicle: saline with Tween-80): 92 % of control | T/C (dose: 16.0 mg/kg/injection, schedule: Q01DX009 (ip), vehicle: saline with Tween-80): 86 % of control and 88 % of control (2×) | T/C (dose: 32.0 mg/kg/injection, schedule: Q01DX009 (ip), vehicle: saline with Tween-80): 86 % of control and 94 % of control | T/C (dose: 64.0 mg/kg/injection, schedule: Q01DX009 (ip), vehicle: saline with Tween-80): 93 % of control

CN(/N=N/c1nc[nH]c1C(N)=O)C1CCCCC1
T/C (dose: 50.0 mg/kg/injection, schedule: Q01DX009 (ip), vehicle: carboxymethylcellulose (CMC)): 123 % of control

CCCCNC=O
T/C (dose: 100.0 mg/kg/injection, schedule: Q01DX009 (ip), vehicle: saline): 102 % of control | T/C (dose: 200.0 mg/kg/injection, schedule: Q01DX009 (ip), vehicle: saline): 102 % of control | T/C (dose: 400.0 mg/kg/injection, schedule: Q01DX009 (ip), vehicle: saline): 116 % of control

CC1CCC(NC(=O)N(CCCl)N=O)CC1 (stereo not given)
T/C (dose: 0.5 mg/kg/injection, schedule: Q01DX009 (ip), vehicle: other): 104 % of control | T/C (dose: 0.5 mg/kg/injection, schedule: Q01DX009 (ip), vehicle: saline + alcohol): 95 % of control | T/C (dose: 1.0 mg/kg/injection, schedule: Q01DX009 (ip), vehicle: other): 112 % of control | T/C (dose: 1.0 mg/kg/injection, schedule: Q01DX009 (ip), vehicle: saline + alcohol): 113 % of control | T/C (dose: 1.9 mg/kg/injection, schedule: Q01DX001 (ip), vehicle: saline): 106 % of control | T/C (dose: 2.0 mg/kg/injection, schedule: Q01DX009 (ip), vehicle: distilled water + Tween-80 + alcohol): 103 % of control | T/C (dose: 2.0 mg/kg/injection, schedule: Q01DX009 (ip), vehicle: other): 111 % of control | T/C (dose: 2.0 mg/kg/injection, schedule: Q01DX009 (ip), vehicle: saline + alcohol): 118 % of control | T/C (dose: 2.5 mg/kg/injection, schedule: Q04DX003 (ip), vehicle: other): 109 % of control | T/C (dose: 3.75 mg/kg/injection, schedule: Q01DX001 (ip), vehicle: saline): 117 % of control | T/C (dose: 3.75 mg/kg/injection, schedule: Q04DX003 (ip), vehicle: other): 112 % of control and 123 % of control | T/C (dose: 4.0 mg/kg/injection, schedule: Q01DX009 (ip), vehicle: distilled water + Tween-80 + alcohol): 108 % of control | T/C (dose: 4.0 mg/kg/injection, schedule: Q01DX009 (ip), vehicle: saline + alcohol): 150 % of control | T/C (dose: 5.0 mg/kg/injection, schedule: Q04DX003 (ip), vehicle: other): 124 % of control | T/C (dose: 7.5 mg/kg/injection, schedule: Q04DX003 (ip), vehicle: other): 212 % of control | T/C (dose: 8.0 mg/kg/injection, schedule: Q01DX009 (ip), vehicle: distilled water + Tween-80 + alcohol): 184 % of control | T/C (dose: 8.0 mg/kg/injection, schedule: Q01DX009 (ip), vehicle: other): 200 % of control | T/C (dose: 8.0 mg/kg/injection, schedule: Q01DX009 (ip), vehicle: saline + alcohol): 72 % of control | T/C (dose: 9.0 mg/kg/injection, schedule: Q04DX002 (ip), vehicle: Klucel (hydroxypropylcellulose) (HPC)): 121 % of control | T/C (dose: 10.0 mg/kg/injection, schedule: Q04DX003 (ip), vehicle: other): 189 % of control | T/C (dose: 15.0 mg/kg/injection, schedule: Q04DX002 (ip), vehicle: Klucel (hydroxypropylcellulose) (HPC)): 150 % of control | T/C (dose: 15.0 mg/kg/injection, schedule: Q04DX003 (ip), vehicle: other): 94 % of control and 272 % of control | T/C (dose: 16.0 mg/kg/injection, schedule: Q01DX009 (ip), vehicle: distilled water + Tween-80 + alcohol): 51 % of control | T/C (dose: 16.0 mg/kg/injection, schedule: Q01DX009 (ip), vehicle: other): 50 % of control | T/C (dose: 16.0 mg/kg/injection, schedule: Q01DX009 (ip), vehicle: saline + alcohol): 45 % of control | T/C (dose: 20.0 mg/kg/injection, schedule: Q04DX003 (ip), vehicle: other): 263 % of control | T/C (dose: 24.0 mg/kg/injection, schedule: Q01DX001 (ip), vehicle: distilled water + Tween-80 + alcohol): 161 % of control | T/C (dose: 25.0 mg/kg/injection, schedule: Q04DX002 (ip), vehicle: Klucel (hydroxypropylcellulose) (HPC)): 196 % of control | T/C (dose: 30.0 mg/kg/injection, schedule: Q04DX003 (ip), vehicle: other): 50 % of control and 55 % of control | T/C (dose: 32.0 mg/kg/injection, schedule: Q01DX009 (ip), vehicle: other): 37 % of control | T/C (dose: 32.0 mg/kg/injection, schedule: Q01DX009 (ip), vehicle: saline + alcohol): 31 % of control | T/C (dose: 40.0 mg/kg/injection, schedule: Q01DX001 (ip), vehicle: distilled water + Tween-80 + alcohol): 182 % of control | T/C (dose: 42.0 mg/kg/injection, schedule: Q04DX002 (ip), vehicle: Klucel (hydroxypropylcellulose) (HPC)): 213 % of control | T/C (dose: 64.0 mg/kg/injection, schedule: Q01DX009 (ip), vehicle: other): 27 % of control | T/C (dose: 64.0 mg/kg/injection, schedule: Q01DX009 (ip), vehicle: saline + alcohol): 26 % of control | T/C (dose: 66.7 mg/kg/injection, schedule: Q01DX001 (ip), vehicle: distilled water + Tween-80 + alcohol): 63 % of control

O=C1OC2CC1(O)CC(O)C2O (stereo not given)
T/C (dose: 6.25 mg/kg/injection, schedule: Q01DX009 (ip), vehicle: saline): 111 % of control | T/C [1]: 92 % of control | T/C [2]: 101 % of control | T/C (dose: 50.0 mg/kg/injection, schedule: Q04DX003 (ip), vehicle: saline with Tween-80): 103 % of control | T/C (dose: 100.0 mg/kg/injection, schedule: Q04DX003 (ip), vehicle: saline with Tween-80): 97 % of control | T/C (dose: 200.0 mg/kg/injection, schedule: Q04DX003 (ip), vehicle: saline with Tween-80): 94 % of control

COc1cc2ccc3c4cc5c(cc4c[n+](C)c3c2cc1OC)OCO5
T/C (dose: 10.0 mg/kg/injection, schedule: Q01DX009 (ip), vehicle: Klucel (hydroxypropylcellulose) (HPC)): 104 % of control

CC1OC(O[C@H]2C[C@](O)(C(C)O)Cc3c(O)c4c(c(O)c32)C(=O)c2c(O)cccc2C4=O)CC(NC=O)C1O (stereo not given in full)
T/C (dose: 2.0 micrograms/kg/injection, schedule: Q01DX009 (ip), vehicle: saline): 154 % of control | T/C (dose: 4.0 micrograms/kg/injection, schedule: Q01DX009 (ip), vehicle: saline): 154 % of control | T/C (dose: 8.0 micrograms/kg/injection, schedule: Q01DX009 (ip), vehicle: saline): 192 % of control | T/C (dose: 16.0 micrograms/kg/injection, schedule: Q01DX009 (ip), vehicle: saline): 249 % of control | T/C (dose: 32.0 micrograms/kg/injection, schedule: Q01DX009 (ip), vehicle: saline): 195 % of control

CC(Br)C(=O)NC(Cc1ccccc1)C(=O)O (stereo not given)
T/C (dose: 50.0 mg/kg/injection, schedule: Q01DX009 (ip), vehicle: saline with Tween-80): 94 % of control | T/C (dose: 100.0 mg/kg/injection, schedule: Q01DX009 (ip), vehicle: saline with Tween-80): 91 % of control
